Reference: paper PMC11058261, “Nucleoside Phosphorylases make N7-xanthosine” (Nature Communications, 2024)

Experiments:
human purine NP = molecular target: T1, human purine NP (Homo sapiens, UniProt P00491); experiment: HPLC of glycosylation products; assay type: biochemical; conditions: 500 µM X, 500 µM ribose 1-phosphate; 1 g/L enzyme; pH 9 or pH 7; 50 °C
T1 construct: gene PNP
T1 sequence (P00491 1-289): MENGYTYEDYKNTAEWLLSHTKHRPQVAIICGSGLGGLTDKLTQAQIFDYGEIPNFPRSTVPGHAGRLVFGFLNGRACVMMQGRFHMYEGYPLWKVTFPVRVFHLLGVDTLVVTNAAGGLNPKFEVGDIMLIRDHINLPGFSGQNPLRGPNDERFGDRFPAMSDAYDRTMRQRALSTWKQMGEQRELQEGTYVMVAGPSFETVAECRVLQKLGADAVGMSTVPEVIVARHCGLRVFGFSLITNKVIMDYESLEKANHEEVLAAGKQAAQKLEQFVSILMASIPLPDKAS

[1] = molecular target: T2, GtPyNP (pyrimidine NP from G. thermoglucosidasius) (Parageobacillus thermoglucosidasius, UniProt A0AAN0YQC1); experiment: HPLC of glycosylation products; assay type: biochemical; conditions: 500 µM X, 500 µM ribose 1-phosphate; 1 g/L enzyme; pH 9 or pH 7; 50 °C
T2 construct: gene deoA
T2 sequence (A0AAN0YQC1 entry or part of it): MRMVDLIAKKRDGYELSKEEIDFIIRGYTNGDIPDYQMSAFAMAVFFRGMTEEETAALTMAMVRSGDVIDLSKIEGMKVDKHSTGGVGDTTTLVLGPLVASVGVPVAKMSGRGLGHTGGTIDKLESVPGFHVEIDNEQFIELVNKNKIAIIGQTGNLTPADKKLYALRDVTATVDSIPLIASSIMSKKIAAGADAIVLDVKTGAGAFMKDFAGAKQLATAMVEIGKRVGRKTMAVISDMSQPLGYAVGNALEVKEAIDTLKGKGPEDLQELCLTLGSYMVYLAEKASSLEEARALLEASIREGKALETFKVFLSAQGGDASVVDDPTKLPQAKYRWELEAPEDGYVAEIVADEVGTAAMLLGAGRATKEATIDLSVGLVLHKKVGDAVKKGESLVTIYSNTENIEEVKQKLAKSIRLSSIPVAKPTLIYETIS

`O=P(O)(O)O[C@H]1O[C@H](CO)[C@@H](O)[C@H]1O` [Rib1P, ribose 1-phosphate] was tested, and the “HPLC of glycosylation products” value (human purine NP) was “mammalian NPs (human purine NP)” and the “HPLC of glycosylation products” value [1] was “purine and pyrimidine NP from Geobacillus thermoglucosidasius”.
In the case of `O=c1[nH]c(=O)c2[nH]cnc2[nH]1` [X, xanthine], the “HPLC of glycosylation products” value (human purine NP) is reported as “mammalian NPs (human purine NP)” and the “HPLC of glycosylation products” value [1] is reported as “purine and pyrimidine NP from Geobacillus thermoglucosidasius”.
